Patent publication US9707201B2 (Leptrex Ltd, priority 2013, dated 2017)
Entries after “also recorded” stand apart in the source; their conditions may differ.

Legend:
[1] = Ageing of aqueous FG + P-1 reaction solution at 40° C., thiosulfinate content by HPLC; assay type: physicochemical; conditions: for A4 Peak Integration Value × 10^−4: 240 nm
Description: Similar studies were conducted with an aqueous solution of analogue 4 (MMTSO) produced by the method of process 6a, as set out in row 4 of table 23.
1. The reaction mixture (12.0 g FG+400 mg P-1+70 ml H2O) was filtered immediately after 4 hour reaction time and served as the stock solution for this study.
2. The filtered solution was divided into 2 portions. One to be stored frozen and the other to be stored at 40° C.
3. The portion of filtered solution to be used to determine the half-life of A4 was placed in a sealed glass bottle that was placed in an oven that provided a stable temperature of 40° C.
4. At irregular intervals a sample of the aqueous solution was withdrawn and analysed by HPLC.
FIGS. 57-60 show the chromatogram obtained after 0, 120, 168 and 672 hours respectively. Their concentrations are set out below in table 32: […]

[2] = system: MRSA clinical isolate QMUL301; assay: Standard agar diffusion test, zones of inhibition; assay type: cell-based, methicillin-resistant Staphylococcus aureus; conditions: for Activity of the solution after storage: aqueous solution stored at 17° C. for 56 days
Description: The activity of powders and liquids was determined using standard agar diffusion tests. Susceptibility of isolates by measuring the zones of inhibition around a measured amount of the anti-microbial agent.
Bacteria: MRSA clinical isolate QMUL301 was used. Overnight broth cultures in isosensitest broth were prepared. These were diluted to give a final concentration of 10^5 cfu/ml
Media: Isosensitest agar (Oxoid Ltd).
• A broth containing 10^5 cfu/ml was prepared in peptone water. • 0.2 ml was spread over each isosensitest plate. • Plates were air dried and a 6 mm well cut in the centre of the plate. • A volume of 100 ul of liquid or 100 ug of solid was added to each well. • Plates were incubated overnight at 37° C. • The presence of zones of inhibition around a well is indicative of biological activity being present. No zone around the 6 mm well, (as with the negative control) represented no biological activity.

[3] = assay type: physicochemical; conditions: buffer
Description: 1. Aqueous solutions were prepared using 70 ml water and 6 g McCormick garlic powder, along with methiin or alliin in the proportions shown in table 37 below. The liquid in the top row was prepared from a blend of the following liquids:
2. All solutions were prepared at a temperature of 21° C. with the garlic powder reaction mixture being stirred for 3 hours. At the end of the 3 hour stirred reaction period, the solutions were filtered and immediately assayed by HPLC for their respective A-1, A-2 and A-4 content. These initial concentration values were considered as Time Zero values. 3. After Time Zero thiosulfinate concentrations had been obtained, the solutions were stored at stable temperatures within accurate temperature regulated ovens. 4. Samples of each temperature stored aqueous solution were withdrawn at appropriate time intervals and assayed by HPLC for A-1, A-2 and A-4 content. The decay of the blended liquid can be seen in FIGS. 64, 65 and 66. […] 5. The decomposition profile graphs for MMTSO, MA-AM and Allicin are shown in FIGS. 67, 68 and 69 respectively. These figures were constructed by expressing their respective HPLC peak area integration values measured at 240 nm as a function of sample storage time to obtain Relative % Concentration values. In all cases the best fit was obtained with MicroCal Origin s/w using a first order exponential decay fit. In FIG. 67, the half-life value was obtained by interpolating the time at which the A-4 (MMTSO) peak provides ½ integral value of that initially obtained for A-4 peak at Time Zero. Half-life for A-4 at 55° C. was determined as 51.1 hrs. Similarly in FIG. 68, the half-life value was obtained by interpolating the time at which A-1 (MA-AM) peak provides ½ integral value of that initially obtained for A-1 peak at Time Zero. Half-life for A-1 was determined as 30.2 hrs. Once again, the half-life value was obtained by interpolating the time at which A-2 (Allicin) peak provides ½ integral value of that initially obtained for A-2 peak at Time Zero. Half-life for A-2 is determined as 9.4 hrs.

[4] = Thiosulfinate half-life in aqueous ethanol garlic extract solutions by quantitative reverse phase HPLC; assay type: physicochemical; conditions: buffer, initial allicin 400 ppm, mean (SD), n=3
Description: The solutions were prepared from a single stock aqueous garlic extract solution that was diluted with the appropriate volume of ethanol to produce the 25%, 50% and 75% ethanol garlic aqueous extract solutions. The aqueous stock solution of garlic extract assayed by HPLC was determined to have an allicin content of 1600 ppm (1600 mg allicin in 1000 ml water) and each of the 25%, 50% and 75% ethanol:aqueous dilutions prepared from the aqueous garlic extract stock solution were prepared to provide an initial allicin concentration of 400 ppm.
The decomposition profiles of MeS(O)SAll and AllS(O)SMe (the MA-AM mixture collectively referred to as Analogue-1), AllS(O)SAll (Allicin, Analogue-2) and AllS(O)SPn-(E,Z) (Analogue-3) thiosulfinates were then determined by quantitative reverse phase HPLC. The quantitative HPLC procedure involved determining the relative concentrations of each thiosulfinate in the various solutions at the various ageing temperatures as a function of the time that each solution was stored at a carefully controlled temperature. The initial measurement of the concentration value for each thiosulfinate determined immediately after freshly prepared solutions were prepared provides the 100% thiosulfinate concentration value for the start time (time zero) at which the time-lapse thermal decomposition measurements started to commence.
The quantitative HPLC data recorded for the MA-AM mixture (Analogue-1), allicin (Analogue-2) and AllS(O)SPn-(E,Z) (Analogue-3) established that each thiosulfinate was subject to a first-order exponential decay process when the 25%, 50% and 75% aqueous:ethanol garlic extract solutions were stored (aged) through the temperature range 40-20° C. FIGS. 2-4 show exponential decay profiles obtained for MA-AM (Analogue-1), allicin (Analogue-2) and AllS(O)SPn-(E,Z) (Analogue-3)—FIGS. 2-4 produced from data obtained from the HPLC analyses of the same single sample whose solvent composition was ethanol:water (25:75% by volume) with an initial allicin concentration of 400 ppm. The decay profiles were obtained using ORIGIN version 6.1 software (Origin is a registered trade mark of OriginLab Corporation) software that determined the best fit for decomposition profiles as being first-order exponential decay. From the decomposition profiles shown in FIGS. 2-4 it is possible to interpolate to determine the time required for each thiosulfinate to decompose to 50% of its initial concentration level that had been initially measured at the outset when controlled temperature storage started.

[5] = Thiosulfinate half-life in 100% aqueous garlic extract solution by quantitative HPLC; assay type: physicochemical; conditions: buffer, 100% aqueous solution, mean (SD), n=3, read-out: Half-Life (hours) at 20° C.
Helicobacter pylori = conditions: Canizares et al. 2004; cited from earlier work
[6] = system: herpes simplex virus types 1 and 2, parainfluenza virus type 3 and rhinovirus type 2; conditions: in vitro, compounds present in garlic extracts; cited from earlier work
[7] = aqueous solution, 0 hours aged at 40° C.
[8] = aqueous solution, 120 hours aged at 40° C.
[9] = aqueous solution, 168 hours aged at 40° C.
[10] = aqueous solution, 672 hours aged at 40° C.
[11] = aqueous solution (12.0 g FG + 400 mg P-1 + 70 ml H2O), 0 hours aged at 40° C.

For CS[S+](C)[O-] (stereo not shown) [Analogue A-4, methyl methyl-thiosulfinate], the A-4 ppm ([1]; aqueous solution (Red Spot), stored at 40° C. for 672 hours) was 1597 ppm, the “A4 concentration converted from peak integration value” [1, 7] was “(=2410 ppm)” and the “A4 Peak Integration Value × 10^−4” value [1, 7] was 1153. The “A4 Peak Integration Value × 10^−4” value [1, 8] was 1074, the “A4 Peak Integration Value × 10^−4” value [1, 9] was 1004 and the “A4 Peak Integration Value × 10^−4” value [1, 10] was “(743)”. For the same compound, the “A4 Peak Integration Value × 10^−4” value ([1]; aqueous solution, 672 hours aged at 40° C., listed as A4) was 764, the “Activity of the solution after storage” value [2] was “remains active” and the “Antimicrobial activity against MRSA” value ([2]; aqueous solutions) was “significant antimicrobial activity; also recorded: at least the same level of antimicrobial activity against MRSA as A-2”. The Half-Life hrs [3] was 51.1 h.
Compound C=CC[S+]([O-])SC=CC (stereo not shown) has a half-life ([4]; 25% EtOH, 20° C.) of 134 h, a half-life ([4]; 25% EtOH, 25° C.) of 66.1 h and a half-life ([4]; 25% EtOH, 30° C.) of 39.5 h. It also gave a half-life ([4]; 25% EtOH, 35° C.) of 25 h, a half-life ([4]; 25% EtOH, 40° C.) of 15.3 h and a half-life ([4]; 50% EtOH, 20° C.) of 203 h. For the same compound, the half-life ([4]; 50% EtOH, 25° C.) was 121 h, the half-life ([4]; 50% EtOH, 30° C.) was 65.6 h and the half-life ([4]; 50% EtOH, 35° C.) was 28.8 h. For the same compound, the half-life ([4]; 50% EtOH, 40° C.) was 17.3 h, the half-life ([4]; 75% EtOH, 20° C.) was 161 h and the half-life ([4]; 75% EtOH, 25° C.) was 73.4 h. The half-life ([4]; 75% EtOH, 30° C.) was 46.9 h, the half-life ([4]; 75% EtOH, 35° C.) was 30.3 h and the half-life ([4]; 75% EtOH, 40° C.) was 17.6 h. For the same compound, the half-life ([5]; initial allicin (A-2) concentration 375 ppm) was 140 h and the half-life ([5]; initial allicin (A-2) concentration 1500 ppm) was 77.2 h.
For “allyl allyl-thiosulfinate [Analogue A-2, reference compound]”, the “concentration (ppm)” value [1, 11] was 47 ppm, the “Activity of the solution after storage” value [2] was “lost all measurable activity” and the Half-Life hrs [3] was 9.4 h. For the same compound, the “Inhibition of the in vitro growth of Helicobacter pylori” value (Helicobacter pylori) was “show inhibition” and the Virucidal activity [6] was “possess virucidal activity”.
For “methyl allyl-thiosulfinate (MA) and its structural isomer allyl methyl-thiosulfinate (AM) [Analogue A-1]”, the “concentration (ppm)” value [1, 11] was 843 ppm, the “concentration (ppm)” value [1, 8] was 415 ppm and the “concentration (ppm)” value [1, 9] was 314 ppm. For the same compound, the “concentration (ppm)” value [1, 10] was 35 ppm and the Half-Life hrs [3] was 30.2 h.
